Data set [1] concerns the target T1, hα7-wt nAChR-expressing GH4Cl cells (Homo sapiens, UniProt P36544).
T1 construct: expressed in transfected cells
Nature of the data set: Patch-clamp current recording (whole-cell), potentiation of choline 1 mM response, PAM type. Also on record: key to Pam type: Type 0 compounds minimally enhance the effect size of the current elicited by 1 mM choline.; Type 1 compounds enhance the effect size of the current elicited by 1 mM choline but minimally alter the kinetics of the receptor.; Type 2 compounds enhance the effect size of the current elicited by 1 mM choline while reducing the rate and/or the extent of desensitization.; Type 3 compounds enhance the effect size of the current elicited by 1 mM choline. When tested at higher concentrations up to 10 μM they completely inhibit desensitization, in particular a 1 mM choline application of 250 milliseconds.; Type 4 compounds allow for an initial desensitization of the receptor followed by a re-opening of the receptor during agonist application. Format: cell-based. Conditions: for EC50: according to Ex. D.2, "<5" = no top plateau reached at maximal concentration, read-out: Potency (pEC50) (converted); for Pam type: patch-clamp current recording, 1 mM choline. In short, it runs like this:
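Whole-cell voltage clamp at −70 mV of GH4Cl cells expressing human α7 nAChR, with PAM and 1 mM choline co-applied by rapid-switching (<100 ms) microfluidics. External solution HEPES-buffered, 1 mM Ca, pH 7.3; CsCl-based internal. Compounds classified into PAM types by effect on current amplitude and desensitization kinetics.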
Background: The patch-clamp technique gives a direct electrical read-out from membranes.

By melting point is commonly meant the temperature, or range, at which the solid turns liquid.

T1 sequence (P36544 23-502): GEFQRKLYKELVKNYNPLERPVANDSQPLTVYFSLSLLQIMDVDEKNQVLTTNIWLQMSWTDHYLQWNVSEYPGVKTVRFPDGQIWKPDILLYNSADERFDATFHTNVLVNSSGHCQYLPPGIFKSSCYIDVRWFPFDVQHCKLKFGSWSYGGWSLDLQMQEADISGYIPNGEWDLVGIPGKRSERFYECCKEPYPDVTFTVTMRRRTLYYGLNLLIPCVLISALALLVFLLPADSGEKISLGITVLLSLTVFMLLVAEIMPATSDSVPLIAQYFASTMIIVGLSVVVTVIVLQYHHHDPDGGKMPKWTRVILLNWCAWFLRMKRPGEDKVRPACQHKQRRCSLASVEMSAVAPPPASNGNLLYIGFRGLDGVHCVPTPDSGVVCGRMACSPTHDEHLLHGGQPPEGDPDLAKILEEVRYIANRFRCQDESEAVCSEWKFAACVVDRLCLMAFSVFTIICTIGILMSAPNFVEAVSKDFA

In turn, `Cc1cc(-n2nc(Nc3ccc(F)c(C(F)(F)F)c3)nc2CCCO)ccn1` [E7, 3-[[4-Fluoro-3-(trifluoromethyl)phenyl]amino]-1-(2-methyl-4-pyridinyl)-1H-1,2,4-triazole-5-propanol] gave a melting point of 197.6 °C. Besides, in data set [1], the EC50 was 1000 nM and the Pam type is 2.

For `CCNC(=O)Cc1nc(Nc2ccc(F)c(F)c2F)nn1-c1cc(C)nc(C)c1` [E210], the melting point is 241.5 °C. Besides, in data set [1], the EC50 was 417 nM and the Pam type turned out to be 2.

`CCc1cc(-n2nc(Nc3ccc(F)c(F)c3)nc2C[C@H](C)O)ccn1` [E131] displayed a melting point of 168 °C. Moreover, in data set [1], the EC50 was 1380 nM and the Pam type is reported as 2.

On to `CC[C@@H](O)Cc1nc(Nc2ccc(F)c(F)c2)nn1-c1ccnc(C)c1` [E134], for which the melting point amounted to 175.8 °C. In data set [1], the EC50 is 1050 nM and the Pam type came out at 2.

For the compound `COc1cccc(-n2nc(Nc3cccc(OC(F)(F)F)c3)nc2CCC(=O)N(C)C)c1` [E60], the melting point stood at 133.5 °C. Moreover, in data set [1], the EC50 was 282 nM and the Pam type is on record as 0.

Regarding `Cc1cc(-n2nc(Nc3ccc(F)c(C(F)(F)F)c3)nc2C[C@@H](C)O)cc(C)n1` [E199], the melting point was 224.4 °C. Further, in data set [1], the EC50 was 1070 nM and the Pam type was 2.

`Cc1cc(-n2nc(Nc3ccc(F)c(F)c3F)nc2CC(=O)NC2CC2)cc(C)n1` [E211] returned a melting point of 237.3 °C. Also, in data set [1], the EC50 was 372 nM and the Pam type is listed as 2.

On to `CCNC(=O)C(C)c1nc(Nc2ccc3c(c2)OC(F)(F)O3)nn1-c1cc(C)nc(C)c1` (stereo not drawn) [E275], for which the melting point was 244 °C. In data set [1], the EC50 was 1050 nM and the Pam type was found to be 2.

The compound `CN(C)C(=O)CCc1nc(Nc2ccc(F)c(F)c2)nn1-c1ccc(Cl)cc1` [E59] came in with a melting point of 145.1 °C. In addition, in data set [1], the EC50 was 245 nM and the Pam type was found to be 4.

`CNC(=O)CCc1nc(Nc2cccc(OC(F)(F)F)c2)nn1-c1ccnc(C)c1` [E54] showed a melting point of 153.7 °C. Besides, in data set [1], the EC50 was 2290 nM and the Pam type amounted to 2.

The compound `CC[C@H](O)Cc1nc(Nc2ccc(OC)cc2)nn1-c1ccnc(C)c1` [E202] yielded a melting point of 133.2 °C. In data set [1], the EC50 was 2750 nM and the Pam type was determined as 2.

In turn, `CC[C@H](O)Cc1nc(Nc2ccc(F)c(F)c2)nn1-c1cc(C)nc(C)c1` [E132] returned a melting point of 180.6 °C. Further, in data set [1], the EC50 is 240 nM and the Pam type is 2.

`C[C@H](O)Cc1nc(Nc2ccc(F)c(C(F)(F)F)c2)nn1-c1ccc(F)cc1` [E20]: the melting point is 170.4 °C. Moreover, in data set [1], the EC50 was 4470 nM.

In the case of `Cc1cc(-n2nc(Nc3ccc(F)c(C(F)(F)F)c3)nc2C(C)CO)ccn1` (stereo not drawn) [E31], the melting point was determined as 181.9 °C. For the same compound, in data set [1], the EC50 was 2240 nM and the Pam type turned out to be 2.

Turning to `COCCc1nc(Nc2ccc(F)c(C(F)(F)F)c2)nn1-c1ccnc(C)c1` [E13], the melting point amounted to 170.4 °C. In data set [1], the EC50 is 240 nM and the Pam type worked out at 0.

In turn, `Cc1cc(-n2nc(Nc3ccc4c(c3)OC(F)(F)O4)nc2CC(=O)NCC2CC2)c(C)cn1` [E161] displayed a melting point of 227.2 °C. Moreover, in data set [1], the EC50 was 1320 nM and the Pam type is listed as 2.

As to `Cc1ccc(-n2nc(Nc3cccc(OC(F)(F)F)c3)nc2CCC(=O)N(C)C)cn1` [E75], the melting point is 174.3 °C. For the same compound, in data set [1], the EC50 was 186 nM and the Pam type is on record as 4.

For `CN(C)C(=O)CCc1nc(Nc2ccc(F)c(F)c2)nn1-c1cccc(Cl)c1` [E58], the melting point was determined as 165.4 °C. For the same compound, the EC50 in data set [1] was 339 nM.

As to `CC[C@H](O)Cc1nc(Nc2ccc(F)c(F)c2)nn1-c1ccc(C)nc1` [E140], the melting point was determined as 127.5 °C. For the same compound, in data set [1], the EC50 is 1620 nM and the Pam type was 2.

Turning to `CC[C@H](O)Cc1nc(Nc2ccc(F)c(F)c2)nn1-c1ccc(F)cc1` [E28], the melting point stood at 157.3 °C. Besides, in data set [1], the EC50 is 1910 nM and the Pam type is on record as 1.

The compound `Cc1cc(-n2nc(Nc3ccc(F)c(C(F)(F)F)c3)nc2CCC(=O)N(C)C)cc(C)n1` [E233] yielded a melting point of 184 °C. Besides, the EC50 in data set [1] was roughly 29.5 nM.

Compound `CC[C@H](O)Cc1nc(Nc2cc(F)c(F)c(F)c2)nn1-c1cc(C)nc(C)c1` [E188, (alphaS)-1-(2,6-dimethyl-4-pyridinyl)-alpha-ethyl-3-[(3,4,5-trifluorophenyl)amino]-1H-1,2,4-triazole-5-ethanol] registered a melting point of 176.6 °C. Besides, in data set [1], the EC50 was 224 nM and the Pam type came to 2.

As for `C[C@H](O)Cc1nc(Nc2ccc(F)c(C(F)(F)F)c2)nn1-c1ccncc1Cl` [E25], the melting point amounted to 150.3 °C. In addition, in data set [1], the EC50 is 4790 nM and the Pam type is given as 2.

Turning to `Cc1cc(-n2nc(Nc3cccc(Cl)c3F)nc2CC(=O)NC2CC2)cc(C)n1` [E150], the melting point stood at 248.8 °C. Also, in data set [1], the EC50 was 417 nM and the Pam type came out at 2.

`C[C@H](O)Cc1nc(Nc2ccc(F)c(F)c2)nn1-c1cccc(F)c1` [E17] came in with a melting point of 177.1 °C. For the same compound, in data set [1], the EC50 is 3550 nM.

Compound `Cc1cc(-n2nc(Nc3ccc4c(c3)OC(F)(F)O4)nc2CC(=O)NC2CC2)cc(C)n1` [E180, N-cyclopropyl-3-[(2,2-difluoro-1,3-benzodioxol-5-yl)amino]-1-(2,6-dimethyl-4-pyridinyl)-1H-1,2,4-triazole-5-acetamide] came in with a melting point of 292.6 °C. Also, in data set [1], the EC50 is 302 nM and the Pam type worked out at 2.

As to `COc1cccc(-n2nc(Nc3ccc(F)c(C(F)(F)F)c3)nc2CCC(=O)N(C)C)c1` [E61], the melting point worked out at 173.6 °C. Moreover, the EC50 in data set [1] was 85.1 nM.

`Cc1cc(-n2nc(Nc3cccc(C(F)(F)F)c3)nc2CC(=O)NC2CC2)cc(C)n1` [E171] yielded a melting point of 270 °C. In data set [1], the EC50 is 501 nM and the Pam type is recorded as 4.

With `Cc1cc(-n2nc(Nc3cccc(C(F)(F)F)c3)nc2CC(=O)NCC2CC2)cc(C)n1` [E177], the melting point was 260.9 °C. In addition, in data set [1], the EC50 is 219 nM and the Pam type was 2.

On to `OCCCc1nc(Nc2ccc(F)c(C(F)(F)F)c2)nn1-c1ccncc1Cl` [E14], for which the melting point was found to be 152.9 °C. For the same compound, in data set [1], the EC50 was 3980 nM.

Consider `COCCCc1nc(Nc2ccc(F)c(C(F)(F)F)c2)nn1-c1ccnc(C)c1` [E15], for which the melting point was found to be 141.4 °C. Besides, in data set [1], the EC50 is 110 nM and the Pam type came to 0.

`CNc1ncccc1-n1nc(Nc2cccc(OC(F)(F)F)c2)nc1CCC(=O)N(C)C` [E6, N,N-Dimethyl-1-[2-(methylamino)-3-pyridinyl]-3-[[3-(trifluoromethoxy)phenyl]amino]-1H-1,2,4-triazole-5-propanamide] came in with a melting point of 212.8 °C. Further, the EC50 in data set [1] is 851 nM.

Regarding `CN(C)C(=O)CCc1nc(Nc2ccc3c(c2)OC(F)(F)O3)nn1-c1cccnc1Cl` [E118], the melting point was 195.8 °C. In addition, the EC50 in data set [1] was 692 nM.

Compound `COc1cc(Nc2nc(C[C@H](C)O)n(-c3cccnc3)n2)cc(C(F)(F)F)c1` [E144] registered a melting point of 145.5 °C. In addition, the EC50 in data set [1] was 2950 nM.

`CC[C@H](O)Cc1nc(Nc2cccc(Cl)c2F)nn1-c1ccnc(C)c1` [E173] returned a melting point of 127.9 °C. In data set [1], the EC50 was 407 nM and the Pam type amounted to 2.

`Cc1cc(-n2nc(Nc3cc(F)c(F)c(F)c3)nc2C[C@H](C)O)ccn1` [E207] yielded a melting point of 200.2 °C. In addition, in data set [1], the EC50 was 1320 nM and the Pam type was 2.

`CN(C)C(=O)CCc1nc(Nc2ccc(F)c(F)c2)nn1-c1ccccc1Cl` [E57] had a melting point of 179.6 °C. In addition, in data set [1], the EC50 was 1070 nM and the Pam type is given as 3.

On to `Cc1cc(-n2nc(Nc3ccc(F)c(F)c3F)nc2CC(=O)NC2CCC2)cc(C)n1` [E212], for which the melting point worked out at 249.4 °C. For the same compound, in data set [1], the EC50 is 251 nM and the Pam type stood at 2.

The values above are taken from patent US8778974B2, “Trisubstituted 1,2,4 triazoles” (Janssen Pharmaceutica NV, priority 2008, dated 2014).
